In ChEMBL document CHEMBL4342489, “Structure-Activity Relationship Evaluation of Wasp Toxin β-PMTX Leads to Analogs with Superior Activity for Human Neuronal Sodium Channels” (ACS Med Chem Lett, 2020) one finds Ratio AUC data, which are given here for 14 compounds.

Positions of bridges follow the written chain, without caps; N, C: chain ends. Non-standard residues stand in square brackets, D forms with d. Residues, ends and D or L forms follow the SMILES beside them. Phe(4-Cl) = N[C@@H](Cc1ccc(Cl)cc1)C(=O)O

Format in all cases: cell-based
The target in test [1] is Sodium channel protein type 1 subunit alpha (Homo sapiens) (UniProt P35498). In words: Activation of human Nav1.1 expressed in HEK293 cells assessed as ratio of compound activation AUC to baseline activation AUC at 3.3 uM at -120 mV holding potential by Qpatch assay.
Test [2] shares this target. In words: Activation of human Nav1.1 expressed in HEK293 cells assessed as ratio of compound activation AUC to baseline activation AUC at 0.37 uM at -120 mV holding potential by Qpatch assay.
For test [3] the target is unchanged. In words: Activation of human Nav1.1 expressed in HEK293 cells assessed as ratio of compound activation AUC to baseline activation AUC at 1.11 uM at -120 mV holding potential by Qpatch assay.
Test [4] shares this target. In words: Activation of human Nav1.1 expressed in HEK293 cells assessed as ratio of compound activation AUC to baseline activation AUC at 0.12 uM at -120 mV holding potential by Qpatch assay.

For the compound `CC[C@H](C)[C@H](NC(=O)[C@@H](N)CCCNC(=N)N)C(=O)N[C@@H](CCCCN)C(=O)N[C@H](C(=O)N1CCC[C@@H]1C(=O)N[C@@H](CC(C)C)C(=O)N[C@@H](Cc1ccccc1)C(=O)N[C@@H](CC(=O)O)C(=O)N[C@@H](CCC(N)=O)C(=O)N[C@@H](CC(C)C)C(=O)N[C@@H](CO)C(=O)N[C@@H](CCCNC(=N)N)C(=O)N[C@@H](CC(C)C)C(N)=O)[C@@H](C)CC`, the Ratio AUC in test [1] was determined as 1.1; in test [2], 1.1; in test [3] it was 1.1; in test [4], 1.

As for `CC[C@H](C)[C@H](NC(=O)[C@H](CCCCN)NC(=O)[C@@H](NC(=O)[C@@H](N)CCCNC(=N)N)[C@@H](C)CC)C(=O)N[C@H](C)C(=O)N[C@@H](CC(C)C)C(=O)N[C@@H](Cc1ccccc1)C(=O)N[C@@H](CC(=O)O)C(=O)N[C@@H](CCC(N)=O)C(=O)N[C@@H](CC(C)C)C(=O)N[C@@H](CO)C(=O)N[C@@H](CCCNC(=N)N)C(=O)N[C@@H](CC(C)C)C(N)=O`, the Ratio AUC in test [1] came out at 1.1; in test [2], 0.1; in test [3], 1; in test [4], 0.1.

As for `CC[C@H](C)[C@@H]1NC(=O)[C@H](CCCCN)NC(=O)[C@H]([C@@H](C)CC)NC(=O)[C@@H](N)CSSC[C@@H](C(=O)N[C@@H](CCC(N)=O)C(=O)N[C@@H](CC(C)C)C(=O)N[C@@H](CO)C(=O)N[C@@H](CCCNC(=N)N)C(=O)N[C@@H](CC(C)C)C(N)=O)NC(=O)[C@H](Cc2ccccc2)NC(=O)[C@H](CC(C)C)NC(=O)CNC1=O` (H-CIKIGLFCQLSRL-NH2; disulfide 1-8), the Ratio AUC in test [1] was found to be 1.1; in test [2], 1.1; in test [3], 1; in test [4] it was 1.

For `CC[C@H](C)[C@H](NC(=O)[C@H](CCCCN)NC(=O)[C@@H](NC(=O)[C@@H](N)CC(=O)O)[C@@H](C)CC)C(=O)NCC(=O)N[C@@H](CC(C)C)C(=O)N[C@@H](Cc1ccccc1)C(=O)N[C@@H](CCCNC(=N)N)C(=O)N[C@@H](CCC(N)=O)C(=O)N[C@@H](CC(C)C)C(=O)N[C@@H](CO)C(=O)N[C@@H](CCCNC(=N)N)C(=O)N[C@@H](CC(C)C)C(N)=O` (H-DIKIGLFRQLSRL-NH2), the Ratio AUC in test [1] turned out to be 1.1; in test [2], 1.1; in test [3] it was 1.1; in test [4] it was 1.

Consider `CC[C@H](C)[C@@H]1NC(=O)[C@@H](NC(=O)[C@@H](NC(=O)[C@@H](N)CCCNC(=N)N)[C@@H](C)CC)CSSC[C@@H](C(=O)N[C@@H](CCC(N)=O)C(=O)N[C@@H](CC(C)C)C(=O)N[C@@H](CO)C(=O)N[C@@H](CCCNC(=N)N)C(=O)N[C@@H](CC(C)C)C(N)=O)NC(=O)[C@H](Cc2ccccc2)NC(=O)[C@H](CC(C)C)NC(=O)CNC1=O` (H-RICIGLFCQLSRL-NH2; disulfide 3-8), for which the Ratio AUC in test [1] came to 1; in test [2] it was 0.9; in test [3], 0.9; in test [4], 1.1.

As for `CC[C@H](C)[C@H](NC(=O)[C@H](CC(=O)O)NC(=O)[C@@H](NC(=O)[C@@H](N)CCCNC(=N)N)[C@@H](C)CC)C(=O)NCC(=O)N[C@@H](CC(C)C)C(=O)N[C@@H](Cc1ccccc1)C(=O)N[C@@H](CCCCN)C(=O)N[C@@H](CCC(N)=O)C(=O)N[C@@H](CC(C)C)C(=O)N[C@@H](CO)C(=O)N[C@@H](CCCNC(=N)N)C(=O)N[C@@H](CC(C)C)C(N)=O` (H-RIDIGLFKQLSRL-NH2), the Ratio AUC in test [1], in test [2], in test [3] and in test [4] was 1.1 each time.

As for `CC[C@H](C)[C@H](NC(=O)[C@H](CCCCN)NC(=O)[C@@H](NC(=O)[C@@H](N)CCCNC(=N)N)[C@@H](C)CC)C(=O)NCC(=O)N[C@@H](CC(C)C)C(=O)N[C@@H](Cc1c[nH]c2ccccc12)C(=O)N[C@@H](CC(=O)O)C(=O)N[C@@H](CCC(N)=O)C(=O)N[C@@H](CC(C)C)C(=O)N[C@@H](CO)C(=O)N[C@@H](CCCNC(=N)N)C(=O)N[C@@H](CC(C)C)C(N)=O` (H-RIKIGLWDQLSRL-NH2), the Ratio AUC was 1 in test [1], 0.9 in test [2], 0.9 in test [3] and 1 in test [4].

On to `CC[C@H](C)[C@H](NC(=O)[C@H](CCCNC(=N)N)NC(=O)[C@@H](NC(=O)[C@@H](N)CCCNC(=N)N)[C@@H](C)CC)C(=O)NCC(=O)N[C@@H](CC(C)C)C(=O)N[C@@H](Cc1ccccc1)C(=O)N[C@@H](CC(=O)O)C(=O)N[C@@H](CCC(N)=O)C(=O)N[C@@H](CC(C)C)C(=O)N[C@@H](Cc1ccccc1)C(=O)N[C@@H](CCCNC(=N)N)C(=O)N[C@@H](CC(C)C)C(N)=O` (H-RIRIGLFDQLFRL-NH2), for which the Ratio AUC in test [1] was determined as 2.7; in test [2], 1.1; in test [3], 1.6; in test [4] it was 1.

On to `CC[C@H](C)[C@H](NC(=O)[C@H](CCCNC(=N)N)NC(=O)[C@@H](NC(=O)[C@@H](N)CCCNC(=N)N)[C@@H](C)CC)C(=O)NCC(=O)N[C@@H](CC(C)C)C(=O)N[C@@H](Cc1ccccc1)C(=O)N[C@@H](CC(=O)O)C(=O)N[C@@H](CCC(N)=O)C(=O)N[C@@H](CC(C)C)C(=O)N[C@@H](CC(C)C)C(=O)N[C@@H](CCCNC(=N)N)C(=O)N[C@@H](CC(C)C)C(N)=O` (H-RIRIGLFDQLLRL-NH2), for which the Ratio AUC stood at 5.8 in test [1], 1.6 in test [2], 2.9 in test [3] and 1.1 in test [4].

On to `CC[C@H](C)[C@H](NC(=O)[C@H](CCCNC(=N)N)NC(=O)[C@@H](NC(=O)[C@@H](N)CCCNC(=N)N)[C@@H](C)CC)C(=O)NCC(=O)N[C@@H](CC(C)C)C(=O)N[C@@H](Cc1ccccc1)C(=O)N[C@@H](CC(=O)O)C(=O)N[C@@H](CCC(N)=O)C(=O)N[C@@H](CC(C)C)C(=O)N[C@@H](CO)C(=O)N[C@@H](CCCNC(=N)N)C(=O)N[C@@H](CC(C)C)C(N)=O` (H-RIRIGLFDQLSRL-NH2), for which the Ratio AUC in test [1] was determined as 2; in test [2] it was 1.1; in test [3] it was 1.3; in test [4], 1.

`CC[C@H](C)[C@H](NC(=O)[C@H](CCCNC(=N)N)NC(=O)[C@@H](NC(=O)[C@@H](N)CCCNC(=N)N)[C@@H](C)CC)C(=O)NCC(=O)N[C@@H](CC(C)C)C(=O)N[C@@H](Cc1ccccc1)C(=O)N[C@@H](CC(=O)O)C(=O)N[C@@H](CCC(N)=O)C(=O)N[C@@H](CC(C)C)C(=O)N[C@@H](Cc1c[nH]c2ccccc12)C(=O)N[C@@H](CCCNC(=N)N)C(=O)N[C@@H](CC(C)C)C(N)=O` (H-RIRIGLFDQLWRL-NH2): the Ratio AUC was 4.3 in test [1], 1.6 in test [2], 2.8 in test [3] and 1.2 in test [4].

In the case of `CC[C@H](C)[C@H](NC(=O)[C@H](CCCNC(=N)N)NC(=O)[C@@H](NC(=O)[C@@H](N)CCCNC(=N)N)[C@@H](C)CC)C(=O)NCC(=O)N[C@@H](CC(C)C)C(=O)N[C@@H](Cc1ccccc1)C(=O)N[C@@H](CC(=O)O)C(=O)N[C@@H](CCC(N)=O)C(=O)N[C@@H](CC(C)C)C(=O)N[C@@H](Cc1ccc(O)cc1)C(=O)N[C@@H](CCCNC(=N)N)C(=O)N[C@@H](CC(C)C)C(N)=O` (H-RIRIGLFDQLYRL-NH2), the Ratio AUC was found to be 2 in test [1], 1.1 in test [2], 1.5 in test [3] and 1 in test [4].

Regarding `CC[C@H](C)[C@H](NC(=O)[C@H](CCCNC(=N)N)NC(=O)[C@@H](NC(=O)[C@@H](N)CCCNC(=N)N)[C@@H](C)CC)C(=O)NCC(=O)N[C@@H](CC(C)C)C(=O)N[C@@H](Cc1ccccc1)C(=O)N[C@@H](CC(=O)O)C(=O)N[C@@H](CCC(N)=O)C(=O)N[C@@H](CC(C)C)C(=O)N[C@@H](Cc1ccc(Cl)cc1)C(=O)N[C@@H](CCCNC(=N)N)C(=O)N[C@@H](CC(C)C)C(N)=O` (H-RIRIGLFDQL[Phe(4-Cl)]RL-NH2), the Ratio AUC stood at 3.5 in test [1], 1.2 in test [2], 1.8 in test [3] and 1.1 in test [4].

Consider `CC[C@H](C)[C@H](NC(=O)[C@H](CCCCN)NC(=O)[C@H](CC(C)C)NC(=O)[C@@H](N)CCCNC(=N)N)C(=O)NCC(=O)N[C@@H](CC(C)C)C(=O)N[C@@H](Cc1ccccc1)C(=O)N[C@@H](CC(=O)O)C(=O)N[C@@H](CCC(N)=O)C(=O)N[C@@H](CC(C)C)C(=O)N[C@@H](CO)C(=O)N[C@@H](CCCNC(=N)N)C(=O)N[C@@H](CC(C)C)C(N)=O` (H-RLKIGLFDQLSRL-NH2), for which the Ratio AUC in test [1], in test [2], in test [3] and in test [4] was 1 in each case.
